Measured values: patent publication US12678490B2, “Pharmaceutical combinations comprising insulin and at least an agent selected from meloxicam, bromfenac sodium, acetylsalicylic acid, salicyclic acid and paracetamol” (Eli Lilly and Company, priority 2017, dated 2026)

Legend:
[1] = Insulin lispro co-formulation stability, main peak loss and HMWP growth by analytical RP-HPLC; type: physicochemical; conditions: co-formulated with insulin lispro, 37° C.
Protocol: Two separate formulations are prepared as described above with 20 mM acetylsalicylic acid or 90 mM paracetamol; however, the m-cresol is excluded from the formulation. All samples are adjusted with water to achieve the final concentrations. […] All samples are filtered using 0.22 um syringe filter ([…]). […] The samples are visibly inspected for particulate or precipitation throughout study. Insulin lispro main peak loss and HMWP growth are tracked over time using HPLC. […] The UV detector is set to 214 nm wavelength, column temperature to 40° C., flowrate to 1 mL/min, and injection volume to 5 uL of each formulation. […] The data is collected and slope analysis of rate of change per day is performed using Y by X plots using commercial software.

plasma glucose = assay: Pre-clinical in vivo CSII model, local or oral dexamethasone with insulin lispro bolus; set-up: species or system Yucatan mini pigs; conditions: for Baseline-adjusted area under the curve for plasma glucose over the 6 hours following an insulin bolus: 0.15 U/kg U100 insulin lispro bolus, mean ± SEM; for improving infusion site viability: local delivery, 0.25 mg/h (6 mg/d)

CC(=O)Oc1ccccc1C(=O)O [acetylsalicylic acid, 2-acetoxybenzoic acid]
impact on insulin lispro stability [1]: minimal impact on insulin lispro stability

CC(=O)Nc1ccc(O)cc1 [paracetamol, N-(4-hydroxypehnyl)acetamide]
impact on insulin lispro stability [1]: minimal impact on insulin lispro stability

C[C@@H]1C[C@H]2[C@@H]3CCC4=CC(=O)C=C[C@]4(C)[C@@]3(F)[C@@H](O)C[C@]2(C)[C@@]1(O)C(=O)CO [Dexamethasone, (8S,9R,10S,11S,13S,14S,16R,17R)-9-fluoro-11,17-dihydroxy-17-(2-hydroxyacetyl)-10,13,16-trimethyl-6,7,8,11,12,14,15,16-octahydrocyclopenta[a]phenanthren-3-one]
Baseline-adjusted area under the curve for plasma glucose over the 6 hours following an insulin bolus (plasma glucose; Oral: 25 uL/h insulin placebo + twice daily oral 3 mg dexamethasone, day 0): −14218 ± 754 | Baseline-adjusted area under the curve for plasma glucose over the 6 hours following an insulin bolus (plasma glucose; Oral: 25 uL/h insulin placebo + twice daily oral 3 mg dexamethasone, day 3): −5265 ± 2130 | Baseline-adjusted area under the curve for plasma glucose over the 6 hours following an insulin bolus (plasma glucose; Oral: 25 uL/h insulin placebo + twice daily oral 3 mg dexamethasone, day 5): −8109 ± 987 | Baseline-adjusted area under the curve for plasma glucose over the 6 hours following an insulin bolus (plasma glucose; Oral: 25 uL/h insulin placebo + twice daily oral 3 mg dexamethasone, day 7): −7750 ± 1491 | Baseline-adjusted area under the curve for plasma glucose over the 6 hours following an insulin bolus (plasma glucose; Oral: 25 uL/h insulin placebo + twice daily oral 3 mg dexamethasone, day 10): −4266 ± 1551 | Baseline-adjusted area under the curve for plasma glucose over the 6 hours following an insulin bolus (plasma glucose; Subcutaneous: continuous infusion of 0.25 mg/h dexamethasone, day 0): −16700 ± 2027 | Baseline-adjusted area under the curve for plasma glucose over the 6 hours following an insulin bolus (plasma glucose; Subcutaneous: continuous infusion of 0.25 mg/h dexamethasone, day 3): −12591 ± 873 | Baseline-adjusted area under the curve for plasma glucose over the 6 hours following an insulin bolus (plasma glucose; Subcutaneous: continuous infusion of 0.25 mg/h dexamethasone, day 5): −12297 ± 755 | Baseline-adjusted area under the curve for plasma glucose over the 6 hours following an insulin bolus (plasma glucose; Subcutaneous: continuous infusion of 0.25 mg/h dexamethasone, day 7): −7149 ± 1555 | Baseline-adjusted area under the curve for plasma glucose over the 6 hours following an insulin bolus (plasma glucose; Subcutaneous: continuous infusion of 0.25 mg/h dexamethasone, day 10): −4893 ± 775 | improving infusion site viability (plasma glucose): up to 5 days | improving infusion site viability (plasma glucose; listed as dexamethosone): 5 days | effect on infusion site viability (plasma glucose; orally delivered): no effect
